This note sets out measurements from patent US20230013925A1, “Moraxella Treatment Using Cannabinoids” (BOTANIX PHARMACEUTICALLS LIMITED, priority 2019, published 2023).

For the assay, the system named is Moraxella catarrhalis. The assay is described as follows: Broth microdilution MIC testing (CLSI). It is filed as cell-based. The note with it: for MIC: read-out: MIC (lowest concentration of drug that inhibited visible growth). The protocol: In this study, to evaluate the spectrum of activity, cannabidiol (CBD) was profiled against Moraxella. Testing was conducted following guidelines recommended by the Clinical and Laboratory Standards Institute (CLSI, 1-4), using vancomycin, meropenem, levofloxacin, and gentamicin as comparators for testing aerobic bacteria.
Test agents were supplied by Micromyx. Stock solutions of all compounds were prepared on the first day of testing at 101× the highest test concentration using solvents recommended by CLSI. CBD was prepared fresh on each of testing.
Prior to testing, Moraxella were streaked from frozen vials onto Trypticase Soy Agar (TSA) with 5% sheep blood (Becton Dickinson [BD]; Sparks, Md.; Lot No. 9192895), and incubated at 35° C. overnight.
Cation-adjusted Mueller-Hinton broth (CAMHB; BD; Lot No. 8190586) was used for MIC testing.
MIC values were determined using a broth microdilution procedure described by CLSI (1-4). Automated liquid handlers (Multidrop 384, Labsystems, Helsinki, Finland; Biomek 2000 and Biomek FX, Beckman Coulter, Fullerton, Calif.) were used to conduct serial dilutions and liquid transfers.
To prepare the drug mother plates, which would provide the serial drug dilutions for the replicate daughter plates, the wells of columns 2 through 12 of standard 96-well microdilution plates (Costar 3795) were filled with 150 μl of the designated diluent for each row of drug. The test article and comparator compounds (300 μl at 101× the highest concentration to be tested) were dispensed into the appropriate wells in column 1. The Biomek 2000 was then used to make 2-fold serial dilutions in the mother plates from column 1 through column 11. The wells of column 12 contained no drug and served as the organism growth control wells for the assay.
The daughter plates were loaded with 190 μL per well of the appropriate test medium for the tested organism using the Multidrop 384. The daughter plates were completed on the Biomek FX instrument which transferred 2 μL of drug solution from each well of a mother plate to the corresponding well of each daughter plate in a single step.
A standardized inoculum of each test organism was prepared per CLSI methods (1-4). The inoculum for each organism was dispensed into sterile reservoirs divided by length (Beckman Coulter), and the Biomek 2000 was used to inoculate the plates. Daughter plates were placed on the Biomek 2000 work surface in reverse orientation so that inoculation took place from low to high drug concentration. Plates were inoculated with 10 μL of the inoculum resulting in a final cell density of approximately 5×10^5 CFU/mL per well.
The plates for testing of Moraxella were stacked 3 to 4 high, covered with a sterile lid, and incubated at 35° C. for the time periods specified in CLSI (1-4). Plates were incubated for approximately 16 to 20 hr. Following incubation, the microplates were removed from the incubator and viewed from the bottom using a plate viewer. […] The MIC was read and recorded as the lowest concentration of drug that inhibited visible growth of the organism.

The mark [1] stands for this setting: Moraxella catarrhalis isolate MMX 3782, CAMHB, 35° C., approximately 16 to 20 hr.

≈ marks a conversion by molar mass, not a printed value. Like-named read-outs stand apart in the source and are kept apart here. Bounds are passed on as bounds.

Take `C=C(C)C1CCC(C)=CC1c1c(O)cc(CCCCC)cc1O` (centres unmarked) [CBD, 2-[3-methyl-6-(1-methylethenyl)-2-cyclohexen-1-yl]-5-pentyl-1,3-benzenediol]: under setting [1], the MIC was 1 µg/mL (≈ 3.18 µM).

Take `C[C@H]1COc2c(N3CCN(C)CC3)c(F)cc3c(=O)c(C(=O)O)cn1c23` [LVX, levofloxacin]: the MIC under setting [1] is 0.03 µg/mL (≈ 0.083 µM).

Take `C[C@@H](O)[C@H]1C(=O)N2C(C(=O)O)=C(S[C@@H]3CN[C@H](C(=O)N(C)C)C3)[C@H](C)[C@H]12` [MEM, meropenem]: the MIC under setting [1] is ≤ 0.03 µg/mL.

For the compound `CN[C@H](CC(C)C)C(=O)N[C@H]1C(=O)N[C@@H](CC(N)=O)C(=O)N[C@H]2C(=O)N[C@H]3C(=O)N[C@H](C(=O)N[C@H](C(=O)O)c4cc(O)cc(O)c4-c4cc3ccc4O)[C@H](O)c3ccc(c(Cl)c3)Oc3cc2cc(c3O[C@@H]2O[C@H](CO)[C@@H](O)[C@H](O)[C@H]2O[C@H]2C[C@](C)(N)[C@H](O)[C@H](C)O2)Oc2ccc(cc2Cl)[C@H]1O` [VAN, vancomycin], the MIC (Moraxella catarrhalis) was determined as 32 µg/mL (≈ 22.1 µM).

On to gentamicin, for which the “MIC (lowest concentration of drug that inhibited visible growth)” value under setting [1] was 0.25 µg/mL.
